Measured values from patent US20240182445A1 (ONO PHARMACEUTICAL CO., LTD., priority 2019, published 2024).

Tests used:
[1] = target: T1, human TREK-1 (Homo sapiens, UniProt O95069); test: TREK-1 Manual Patch Clamp (hMPC) assay; assay type: cell-based; conditions: CHO-K1 cells stably expressing human TREK-1; whole-cell current at 0 mV
T1 construct: expressed in transfected cells
T1 sequence (O95069 1-426): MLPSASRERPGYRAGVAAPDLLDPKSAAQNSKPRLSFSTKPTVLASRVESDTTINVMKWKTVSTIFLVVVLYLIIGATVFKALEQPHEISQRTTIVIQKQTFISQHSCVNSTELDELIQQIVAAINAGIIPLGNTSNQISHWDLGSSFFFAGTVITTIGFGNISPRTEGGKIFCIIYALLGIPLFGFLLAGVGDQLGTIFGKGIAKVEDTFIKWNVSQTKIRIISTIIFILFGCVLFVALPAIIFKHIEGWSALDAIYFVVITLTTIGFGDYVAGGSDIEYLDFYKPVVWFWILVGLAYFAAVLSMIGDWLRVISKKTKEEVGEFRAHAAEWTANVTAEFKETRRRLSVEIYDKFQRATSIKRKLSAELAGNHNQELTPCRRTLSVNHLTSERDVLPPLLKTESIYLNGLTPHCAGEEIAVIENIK
Procedure: The term “patch clamp technique” herein refers to the “gold standard” technique for evaluating TREK channel pharmacology. The detail method is described below.
CHO-K1 cells stably expressing human TREK-1 or HEK293 cells stably expressing human TREK-2 are plated on glass coverslips, and voltage clamped in the whole-cell configuration of the patch clamp technique. Cells were voltage clamped at a holding potential of −80 mV and the stepped to 0 mV for 500 msec. The voltage was subsequently ramped from −120 mV to +80 mV over a 500 msec duration. This step-ramp protocol was repeated every 10 sec. The bathing solution contained the following: 135 mM NaCl, 5 mM KCl, 2 mM CaCl2, 1 mM MgCl2, 5 mM D-Glucose, 10 mM HEPES, 10 mM sucrose (adjusted to pH 7.4 with NaOH, 300 mosmol/kg H2O). The pipette solution contained the following: 135 mM KCl, 2 mM MgCl2, 1 mM EGTA, 10 mM HEPES, 2 mM Na2ATP (adjusted to pH 7.35 with KOH, 285 mosmol/kg H2O). Test compounds were dissolved into the bathing solution. Experiments on TREK-2 were terminated with the addition of the control compound (tert-butyl (3-((4-(benzyloxy)-2-methylphenyl)carbamoyl)-4-chlorophenyl)carbamate) so that maximal inhibition could be determined. The effects of test compound on the currents were calculated at 0 mV using the following equations:
For CHO cells expressing TREK-1 channel: % inhibition=(1-post current/pre current)×100
The compounds shown in Table 2 were prepared in an analogous manner with the appropriate starting materials, and evaluated in our TREK-1 Manual Patch Clamp (hMPC) assay.

[2] = target: T1, human TREK-1; test: TREK-1 Thallium (Tl+) flux assay, Method 1; assay type: cell-based; conditions: TREK-1 Thallium (Tl+) flux assay
In short: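 Readout: Thallos fluorescence ratio, taken 25 s post-thallium relative to the pre-thallium baseline average, then converted to % inhibition. Cells were CHO-K1 stably expressing human TREK-1, dye-loaded and exposed to test compound (vehicle 0.3% DMSO) for 10 min prior to thallium stimulation.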

[3] = values without footnote *12 are Method 1
[4] = no *^12 (Method 2) mark on these rows

IC50 [1] | IC50 [2, 3] | IC50 [2, 4] | IC50 ([2]; Method 1) | Compound
60 nM | 110 nM |  |  | CC(=O)N1CCC(n2ncc(Cl)c2C(=O)Nc2ncc(C#Cc3ccc(F)cc3)cc2C)[C@H](F)C1 (stereo in doubt) [Compound 10, 1-((3R,4R)-1-acetyl-3-fluoropiperidin-4-yl)-4-chloro-N-(5-((4-fluorophenyl)ethynyl)-3-methylpyridin-2-yl)-1H-pyrazole-5-carboxamide]
160 nM | 100 nM |  |  | CC(=O)N1CCC([C@H](C)n2ncc(Cl)c2C(=O)Nc2ncc(C#Cc3ccccc3)cc2C)CC1 [Compound 16, (S)-1-(1-(1-acetylpiperidin-4-yl)ethyl)-4-chloro-N-(3-methyl-5-(phenylethynyl)pyridin-2-yl)-1H-pyrazole-5-carboxamide]
70 nM | 220 nM |  |  | O=C(Nc1ncc(C#Cc2ccccc2)cc1F)c1c(Cl)cnn1C[C@H]1COCCO1 [Compound 4, (S)-1-((1,4-dioxan-2-yl)methyl)-4-chloro-N-(3-fluoro-5-(phenylethynyl)pyridin-2-yl)-1H-pyrazole-5-carboxamide]
530 nM | 360 nM |  |  | Cc1cc(C#Cc2ccccc2)cnc1NC(=O)c1c(Cl)cnn1[C@@H]1CCOC1 [Compound 3, (R)-4-chloro-N-(3-methyl-5-(phenylethynyl)pyridin-2-yl)-1-(tetrahydrofuran-3-yl)-1H-pyrazole-5-carboxamide]
100 nM | 120 nM |  |  | O=C(Nc1ncc(C#Cc2ccccc2)cc1F)c1c(Cl)cnn1C1CCN(C(=O)C2COCCO2)CC1 (stereo not drawn) [Compound 11, 1-(1-(1,4-dioxane-2-carbonyl)piperidin-4-yl)-4-chloro-N-(3-fluoro-5-(phenylethynyl)pyridin-2-yl)-1H-pyrazole-5-carboxamide]
130 nM | 220 nM |  |  | CC(=O)N1CC(F)(Cn2ncc(Cl)c2C(=O)Nc2ncc(C#Cc3ccccc3)cc2F)C1 [Compound 140, 1-((1-acetyl-3-fluoroazetidin-3-yl)methyl)-4-chloro-N-(3-fluoro-5-(phenylethynyl)pyridin-2-yl)-1H-pyrazole-5-carboxamide]
30 nM | 140 nM |  |  | CC(=O)N1CCC(n2ncc(Cl)c2C(=O)Nc2ncc(C#Cc3ccc(F)cc3)cc2F)CC1 [Compound 7, 1-(1-acetylpiperidin-4-yl)-4-chloro-N-(3-fluoro-5-((4-fluorophenyl)ethynyl)pyridin-2-yl)-1H-pyrazole-5-carboxamide]
90 nM | 200 nM |  |  | CC(=O)N1CCC(n2ncc(Cl)c2C(=O)Nc2ncc(C#Cc3ccc(F)cc3)cc2C)CC1 [Compound 8, 1-(1-acetylpiperidin-4-yl)-4-chloro-N-(5-((4-fluorophenyl)ethynyl)-3-methylpyridin-2-yl)-1H-pyrazole-5-carboxamide]
60 nM | 120 nM |  |  | CC(=O)N[C@H]1CC[C@@H](n2ncc(Cl)c2C(=O)Nc2ncc(C#Cc3ccccc3)cc2F)CC1 [Compound 13, 1-(cis-4-acetamidocyclohexyl)-4-chloro-N-(3-fluoro-5-(phenylethynyl)pyridin-2-yl)-1H-pyrazole-5-carboxamide]
60 nM | 200 nM |  |  | Cc1cc(C#Cc2ccccc2)cnc1NC(=O)c1c(Cl)cnn1CC1CCOCC1 [Compound 2, 4-chloro-N-(3-methyl-5-(phenylethynyl)pyridin-2-yl)-1-((tetrahydro-2H-pyran-4-yl)methyl)-1H-pyrazole-5-carboxamide]
170 nM | 670 nM |  |  | Cc1cc(C#Cc2ccccc2)cnc1NC(=O)c1c(Cl)cnn1CC1COCCO1 (stereo not drawn) [Compound 1, 1-((1,4-dioxan-2-yl)methyl)-4-chloro-N-(3-methyl-5-(phenylethynyl)pyridin-2-yl)-1H-pyrazole-5-carboxamide]
2 nM | 260 nM |  |  | CC(=O)N[C@H]1CC[C@@H](n2ncc(Cl)c2C(=O)Nc2ncc(C#Cc3ccc(F)cc3)cc2C)CC1 [Compound 14, 1-(cis-4-acetamidocyclohexyl)-4-chloro-N-(5-((4-fluorophenyl)ethynyl)-3-methylpyridin-2-yl)-1H-pyrazole-5-carboxamide]
290 nM | 400 nM |  |  | CC(=O)N1CCC(F)(Cn2ncc(Cl)c2C(=O)Nc2ncc(C#Cc3ccccc3)cc2C)CC1 [Compound 15, 1-((1-acetyl-4-fluoropiperidin-4-yl)methyl)-4-chloro-N-(3-methyl-5-(phenylethynyl)pyridin-2-yl)-1H-pyrazole-5-carboxamide]
20 nM | 140 nM |  |  | Cc1cc(C#Cc2ccccc2)cnc1NC(=O)c1c(Cl)cnn1C1CCn2nccc2C1 (stereo not drawn) [Compound 9, 4-chloro-N-(3-methyl-5-(phenylethynyl)pyridin-2-yl)-1-(4,5,6,7-tetrahydropyrazolo[1,5-a]pyridin-5-yl)-1H-pyrazole-5-carboxamide]
70 nM | 70 nM |  |  | CC(=O)N1CCC(n2ncc(Cl)c2C(=O)Nc2ncc(C#Cc3ccccc3)cc2F)CC1 [Compound 6, 1-(1-acetylpiperidin-4-yl)-4-chloro-N-(3-fluoro-5-(phenylethynyl)pyridin-2-yl)-1H-pyrazole-5-carboxamide]
130 nM |  | 330 nM |  | CC(=O)N1CC(F)(Cn2ncc(Cl)c2C(=O)Nc2ncc(C#Cc3ccccc3)cc2C)C1 [Compound 215, 1-((1-acetyl-3-fluoroazetidin-3-yl)methyl)-4-chloro-N-(3-methyl-5-(phenylethynyl)pyridin-2-yl)-1H-pyrazole-5-carboxamide]
60 nM | 70 nM |  |  | CC(=O)N1CCC(n2ncc(Cl)c2C(=O)Nc2ncc(C#Cc3ccccc3)cc2C)CC1 [Compound 5, 1-(1-acetylpiperidin-4-yl)-4-chloro-N-(3-methyl-5-(phenylethynyl)pyridin-2-yl)-1H-pyrazole-5-carboxamide]
 |  | 610 nM |  | CC1CN(C(=O)OC(C)(C)C)CCC1Cn1ncc(Cl)c1C(=O)Nc1ncc(C#Cc2ccccc2)cc1F (stereo not drawn) [Compound 318, tert-butyl 4-((4-chloro-5-((3-fluoro-5-(phenylethynyl)pyridin-2-yl)carbamoyl)-1H-pyrazol-1-yl)methyl)-3-methylpiperidine-1-carboxylate]
 |  | 330 nM |  | CC(C)C(=O)N1CCC(Cn2ncc(Cl)c2C(=O)Nc2ncc(C#Cc3ccccc3)cc2F)C(F)(F)C1 (stereo not drawn) [Compound 216, 4-chloro-1-((3,3-difluoro-1-isobutyrylpiperidin-4-yl)methyl)-N-(3-fluoro-5-(phenylethynyl)pyridin-2-yl)-1H-pyrazole-5-carboxamide]
 |  |  | 8110 nM | CCC(=O)N1CCOC(Cn2ncc(Cl)c2C(=O)Nc2ccc(OCc3ccccc3)cc2C)C1 (stereo not drawn) [Compound 435]
 | 180 nM |  |  | Cc1cc(C#Cc2cccs2)cnc1NC(=O)c1c(Cl)cnn1[C@H]1CCOC1 [Compound 89, (S)-4-chloro-N-(3-methyl-5-(thiophen-2-ylethynyl)pyridin-2-yl)-1-(tetrahydrofuran-3-yl)-1H-pyrazole-5-carboxamide]
 | 70 nM |  |  | Cc1cc(C#Cc2ccccc2)cnc1NC(=O)c1c(Cl)cnn1-c1ccc2c(c1)OCCO2 [Compound 21, 4-chloro-1-(2,3-dihydrobenzo[b][1,4]dioxin-6-yl)-N-(3-methyl-5-(phenylethynyl)pyridin-2-yl)-1H-pyrazole-5-carboxamide]
